US20210010089A1, “TUMOR MINIMAL RESIDUAL DISEASE STRATIFICATION” (VIB VZW, priority 2018, published 2021)

What was measured:
[1] = tested on: GFRA2-positive MEL006 cells; assay: FACS of GFRA2-positive cells (NDTCs) in MEL006 cultures
Description: Cells were resuspended in FACS sorting buffer (culture medium supplied with 1% EDTA 100 mM).

MM052 melanoma cells = assay: Colony assay and Cell Titer Glo assay in short culture melanoma line
Description: Cells were grown to near confluency on 12well plates and treated with the indicated drug combinations for the indicated time period.
2500 cells were plated onto a 96well plate and treated with the indicated drug combinations for the indicated time period. Cell Titer Glo assay was performed according to the manufacturer's instruction (Promega) and luminescence was measured on a VictorX3 (Perkin Elmer).

RAR = details: pan-RXR agonist; cited from earlier work
[2] = tested on: MRD subpopulation gene signatures; assay: Analysis of available RNASeq data of melanoma patients on immunotherapy (Riaz et al. 2017); set-up: species or system human; details: patient subgroups SD+PD versus CR+PR; results not shown
From the text: Although the therapy selecting for these 4 MRD-stage subpopulations as applied in the Examples herein relies on combined inhibition of BRAF and MEK kinases, it can be envisaged that other therapeutic modalities also give rise to the emergence of the same or some of these 4 MRD-stage subpopulations. […] Likewise, targeted therapies of cancers other than melanoma can lead to a MRD phase during which one or more of the MRD subpopulations as identified herein for melanoma are present. Such targeted therapies include e.g. anti-VEGF (bevacizumab), anti-EGFR (cetuximab, erlotinib), mTOR inhibition (everolimus), Tyr-kinase inhibitor/anti-EGFR (gefitinib), Tyr-kinase inhibition/BCR-ABL inhibition (imatinib), anti-HER2/anti-EGFR (lapatinib), and Tyr-kinase inhibition (sorafenib, sunitinib). On the one hand, as described above, different therapies targeting melanoma can be expected to induce all or part of the minimal residual disease tumor subpopulations as described herein. On the other hand, it can be envisaged that inhibition of the MAPK-pathway (with BRAF and/or MEK inhibitors) is inducing in cancers or tumors different from melanoma one or more minimal residual disease tumor subpopulations as described herein for melanoma.

[3] = tested on: NRAS-mutant cells (MM165); assay: GFRA2 expression (RT-qPCR) in short-term melanoma culture; details: NRAS-mutant culture exposed to both trametinib and bexarotene
wild-type cells (MM163) = assay: as above; type: cell-based, human; details: triple wild-type culture exposed to both trametinib and bexarotene
From the text: C) wild-type cells (MM163).

CN1c2ccc([N+](=O)[O-])cc2N=C(c2ccc(C(=O)O)cc2)c2cc3c(cc21)C(C)(C)CCC3(C)C [HX531]
drug-dependent induction of GFRA2-positive cells ([1]; in presence of IC50 concentrations of the BRAF and MEK-inhibitors): completely inhibited emergence of drug-dependent induction of GFRA2-positive cells | effect on sensitivity of MM52 cells to trametinib (MM052 melanoma cells; HX531 2 uM, trametinib 2 nM, colony assay 7 days, Cell Titer Glo 6 days): sensitized these cells to trametinib

CC1(C)CCC(C)(C)c2cc(C3(c4ccc(C(=O)O)cc4)OCCO3)ccc21 [SR 11237]
RAR activity (RAR): devoid of any RAR activity

CN(c1ncccc1CNc1nc(Nc2ccc3c(c2)CC(=O)N3)ncc1C(F)(F)F)S(C)(=O)=O [PF-562271]
drug-dependent emergence of the GFRA2-high cell population ([1]; FAK inhibitor added to DT-treated MEL006 cells): diminished the drug-dependent emergence of the GFRA2-high cell population in a dose-dependent manner

nivolumab: PD-1 inhibitor
induction of MRD subpopulations (trend) [2]: induce at least the pigmented state and MITFmedium-hypometabolic state MRD subpopulations

C=C(c1ccc(C(=O)O)cc1)c1cc2c(cc1C)C(C)(C)CCC2(C)C [bexarotene]
GFRA2 expression levels [3]: increase | effect on sensitivity to a combination of trametinib/FAK-inhibitors (MM052 melanoma cells; MM52 cells): increased the sensitivity | long-term growth inhibition (MM052 melanoma cells; MM52 culture, compound alone): did not induce measurable long-term growth inhibition | cells in which cell death occurred (MM052 melanoma cells; bexarotene with trametinib/FAK-inhibitors, after 3 days of treatment (data not shown)): ~100% | effect on sensitivity of MM52 cells to trametinib (MM052 melanoma cells; concentrations as low as 10 nM): significantly decreased the sensitivity | GFRA2 expression levels (wild-type cells (MM163)): increase
